The test system of one data set is Mus musculus. Nature of the data set: Toxicity in NMRI mouse assessed as induction of catalepsy up to 90 mg/kg, sc dosed 30 mins before test. The class given is organism-based. Set-up: dose 90 mg/kg, route subcutaneous. To be noted: in vivo, 0.5 h.
Data set [1] concerns the target T1, Adrenergic receptor alpha-1 (Homo sapiens, UniProt P35348+P25100+P35368).
T1 sequence (P35348 whole entry): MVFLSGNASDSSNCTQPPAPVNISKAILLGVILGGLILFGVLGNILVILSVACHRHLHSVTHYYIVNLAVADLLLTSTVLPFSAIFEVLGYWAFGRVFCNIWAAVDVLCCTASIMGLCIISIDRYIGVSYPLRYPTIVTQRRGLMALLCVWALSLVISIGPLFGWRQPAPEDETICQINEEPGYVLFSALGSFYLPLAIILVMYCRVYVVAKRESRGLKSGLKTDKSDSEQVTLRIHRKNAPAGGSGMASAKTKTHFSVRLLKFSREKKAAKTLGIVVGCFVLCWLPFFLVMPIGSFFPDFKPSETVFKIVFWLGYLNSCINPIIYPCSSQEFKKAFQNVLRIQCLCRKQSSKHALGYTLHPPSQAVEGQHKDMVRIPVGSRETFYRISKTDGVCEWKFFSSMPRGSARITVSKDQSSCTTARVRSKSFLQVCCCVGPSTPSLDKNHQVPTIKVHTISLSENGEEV
T1 sequence (P25100 whole entry): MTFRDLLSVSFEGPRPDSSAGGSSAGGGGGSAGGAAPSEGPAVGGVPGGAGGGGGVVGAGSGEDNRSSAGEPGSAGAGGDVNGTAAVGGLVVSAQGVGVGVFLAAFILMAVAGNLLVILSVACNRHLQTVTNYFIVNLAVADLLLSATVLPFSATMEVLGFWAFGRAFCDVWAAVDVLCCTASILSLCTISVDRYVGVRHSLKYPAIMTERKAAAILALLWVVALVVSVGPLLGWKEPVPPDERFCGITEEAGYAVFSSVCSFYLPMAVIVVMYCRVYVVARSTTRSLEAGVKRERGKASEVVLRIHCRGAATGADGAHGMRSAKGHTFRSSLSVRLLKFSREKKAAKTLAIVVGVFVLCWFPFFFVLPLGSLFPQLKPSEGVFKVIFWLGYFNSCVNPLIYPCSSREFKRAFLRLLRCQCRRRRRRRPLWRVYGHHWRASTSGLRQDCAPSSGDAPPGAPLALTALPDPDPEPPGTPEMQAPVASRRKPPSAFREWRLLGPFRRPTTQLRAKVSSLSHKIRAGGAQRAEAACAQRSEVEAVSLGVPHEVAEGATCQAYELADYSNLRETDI
T1 sequence (P35368 whole entry): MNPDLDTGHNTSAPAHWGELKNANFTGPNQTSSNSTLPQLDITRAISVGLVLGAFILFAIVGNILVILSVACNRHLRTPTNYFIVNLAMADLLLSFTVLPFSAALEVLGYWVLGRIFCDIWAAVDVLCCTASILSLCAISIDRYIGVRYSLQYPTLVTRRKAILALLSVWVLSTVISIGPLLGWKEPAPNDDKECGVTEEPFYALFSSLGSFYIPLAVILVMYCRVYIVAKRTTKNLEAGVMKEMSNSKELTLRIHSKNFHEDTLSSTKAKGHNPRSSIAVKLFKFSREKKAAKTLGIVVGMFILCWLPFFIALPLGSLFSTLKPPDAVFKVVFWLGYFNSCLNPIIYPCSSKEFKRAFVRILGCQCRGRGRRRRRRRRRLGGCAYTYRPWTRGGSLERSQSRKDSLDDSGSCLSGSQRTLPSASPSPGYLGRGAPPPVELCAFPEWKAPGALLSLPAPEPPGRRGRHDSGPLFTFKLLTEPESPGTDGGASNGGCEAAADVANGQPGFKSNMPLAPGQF
The data set can be described thus: Binding affinity to alpha1 adrenoreceptor (unknown origin).

The target in data set [2] is T2, Adrenergic receptor alpha-2 (Homo sapiens, UniProt P08913+P18825+P18089).
T2 sequence (P08913 whole entry): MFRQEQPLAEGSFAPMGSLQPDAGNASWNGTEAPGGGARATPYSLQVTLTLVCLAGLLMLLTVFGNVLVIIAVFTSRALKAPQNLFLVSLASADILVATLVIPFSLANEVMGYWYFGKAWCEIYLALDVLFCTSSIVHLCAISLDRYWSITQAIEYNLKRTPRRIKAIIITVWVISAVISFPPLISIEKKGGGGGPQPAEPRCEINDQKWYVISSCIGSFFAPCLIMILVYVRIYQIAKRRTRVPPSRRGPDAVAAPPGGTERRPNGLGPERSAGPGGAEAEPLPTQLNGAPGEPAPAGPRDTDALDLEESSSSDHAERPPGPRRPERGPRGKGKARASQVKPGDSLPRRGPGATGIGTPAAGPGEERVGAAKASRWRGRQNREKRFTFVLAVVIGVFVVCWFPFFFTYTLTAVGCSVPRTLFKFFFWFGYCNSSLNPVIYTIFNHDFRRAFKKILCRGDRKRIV
T2 sequence (P18825 whole entry): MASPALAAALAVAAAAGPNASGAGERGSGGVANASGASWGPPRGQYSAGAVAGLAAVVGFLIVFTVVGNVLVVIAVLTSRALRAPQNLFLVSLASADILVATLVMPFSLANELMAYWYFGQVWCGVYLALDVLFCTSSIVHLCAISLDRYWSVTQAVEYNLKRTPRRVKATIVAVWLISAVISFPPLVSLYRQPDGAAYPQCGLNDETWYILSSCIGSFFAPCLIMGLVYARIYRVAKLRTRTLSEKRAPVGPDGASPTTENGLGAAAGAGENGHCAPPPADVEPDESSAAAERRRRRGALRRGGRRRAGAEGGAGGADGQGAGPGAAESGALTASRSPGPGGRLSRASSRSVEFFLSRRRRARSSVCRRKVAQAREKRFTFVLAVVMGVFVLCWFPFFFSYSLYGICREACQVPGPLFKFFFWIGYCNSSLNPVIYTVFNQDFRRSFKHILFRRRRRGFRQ
T2 sequence (P18089 whole entry): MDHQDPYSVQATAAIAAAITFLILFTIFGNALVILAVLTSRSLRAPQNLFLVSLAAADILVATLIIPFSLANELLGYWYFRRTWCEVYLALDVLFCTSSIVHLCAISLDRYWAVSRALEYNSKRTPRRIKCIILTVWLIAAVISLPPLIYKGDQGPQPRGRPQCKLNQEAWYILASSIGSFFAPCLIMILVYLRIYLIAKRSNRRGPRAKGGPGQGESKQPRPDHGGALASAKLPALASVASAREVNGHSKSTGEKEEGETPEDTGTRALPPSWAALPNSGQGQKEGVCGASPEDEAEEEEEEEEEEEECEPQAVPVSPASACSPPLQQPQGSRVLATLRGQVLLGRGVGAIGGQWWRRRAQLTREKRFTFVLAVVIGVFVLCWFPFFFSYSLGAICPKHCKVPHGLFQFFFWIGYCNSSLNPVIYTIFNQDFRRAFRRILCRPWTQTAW
The data set can be described thus: Binding affinity to alpha2 adrenoreceptor (unknown origin). The class given is protein assay.

A further data set deals with D(3) dopamine receptor (Homo sapiens, UniProt P35462). Nature of the data set: Antagonist activity at human dopamine D3 receptor expressed in CHO-K1 cells assessed as reduction in dopamine-induced response by [35S]GTPgammaS binding assay. The class given is functional, cell-based. In general terms: Binding of GTPγS marks nucleotide exchange on a G protein.

SMILES strings stand for the structures.

Sequence of D(3) dopamine receptor (P35462 whole entry): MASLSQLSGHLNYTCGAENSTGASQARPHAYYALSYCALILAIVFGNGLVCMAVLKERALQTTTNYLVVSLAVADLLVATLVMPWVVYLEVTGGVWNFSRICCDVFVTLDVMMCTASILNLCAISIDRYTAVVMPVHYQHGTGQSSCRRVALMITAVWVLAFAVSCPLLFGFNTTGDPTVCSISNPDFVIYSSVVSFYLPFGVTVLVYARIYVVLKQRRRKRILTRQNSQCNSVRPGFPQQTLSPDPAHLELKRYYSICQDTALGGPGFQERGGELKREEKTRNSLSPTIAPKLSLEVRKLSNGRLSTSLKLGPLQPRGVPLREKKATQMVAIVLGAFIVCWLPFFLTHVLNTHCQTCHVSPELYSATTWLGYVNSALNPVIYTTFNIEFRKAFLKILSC

Take `O=C(NCCCCN1CCN(c2ccccc2)CC1)c1ccc2ncccc2c1`: in the data set on Mus musculus, the Activity entry is “Non-toxic”. For the same compound, the values for the inhibition constant (Ki) in data set [1] and in data set [2] were 50 nM and 150 nM, respectively. The half-inhibitory concentration (IC50) on D(3) dopamine receptor was found to be 258 nM.

Broadly, the Ki is the dissociation constant of the complex between target and ligand, obtained from inhibition or displacement. High values mean lower affinity, low ones higher affinity. What is called IC50 is the concentration at which inhibition is half-maximal.

Values taken from ChEMBL document CHEMBL3351528, “Targeting dopamine D3 and serotonin 5-HT1A and 5-HT2A receptors for developing effective antipsychotics: synthesis, biological characterization, and behavioral studies” (J Med Chem, 2014).
